Measured values published in PubChem BioAssay (NCI).
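These data come from cells grown in 96-well plates and exposed to compound for 48 hours at five concentrations. TGI: total growth inhibition.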

Key:
Assay in all cases: growth of human tumour cells (NCI), 48 h
SK-MEL-28 melanoma = test system: SK-MEL-28 melanoma
T-47D breast = test system: T-47D breast
OVCAR-5 ovarian = test system: OVCAR-5 ovarian
HCC-2998 colon = test system: HCC-2998 colon
DU-145 prostate = test system: DU-145 prostate
NCI/ADR-RES ovarian = test system: NCI/ADR-RES ovarian
UACC-257 melanoma = test system: UACC-257 melanoma
RPMI-8226 leukemia = test system: RPMI-8226 leukemia
SK-OV-3 ovarian = test system: SK-OV-3 ovarian
SNB-75 CNS = test system: SNB-75 CNS
MDA-MB-435 = test system: MDA-MB-435
TK-10 renal = test system: TK-10 renal
CCRF-CEM leukemia = test system: CCRF-CEM leukemia
EKVX NSCLC = test system: EKVX NSCLC
OVCAR-8 ovarian = test system: OVCAR-8 ovarian
COLO 205 colon = test system: COLO 205 colon
UACC-62 melanoma = test system: UACC-62 melanoma
HOP-92 NSCLC = test system: HOP-92 NSCLC
NCI-H522 lung = test system: NCI-H522 lung
SK-MEL-2 melanoma = test system: SK-MEL-2 melanoma
K-562 leukemia = test system: K-562 leukemia
BT-549 breast = test system: BT-549 breast
HL-60(TB) leukemia = test system: HL-60(TB) leukemia
NCI-H460 lung = test system: NCI-H460 lung
SNB-19 CNS = test system: SNB-19 CNS
IGROV1 ovarian = test system: IGROV1 ovarian
SF-295 CNS = test system: SF-295 CNS
HCT-116 colon = test system: HCT-116 colon
ACHN renal = test system: ACHN renal
HT29 colon = test system: HT29 colon
NCI-H226 lung = test system: NCI-H226 lung
LOX IMVI melanoma = test system: LOX IMVI melanoma
NCI-H23 lung = test system: NCI-H23 lung
HOP-62 NSCLC = test system: HOP-62 NSCLC
PC-3 prostate = test system: PC-3 prostate
KM12 colon = test system: KM12 colon
SN12C renal = test system: SN12C renal
RXF 393 renal = test system: RXF 393 renal
SK-MEL-5 melanoma = test system: SK-MEL-5 melanoma
SW-620 colon = test system: SW-620 colon
U251 CNS = test system: U251 CNS
A549 NSCLC = test system: A549 NSCLC
786-0 renal = test system: 786-0 renal
HS 578T breast = test system: HS 578T breast
SF-268 CNS = test system: SF-268 CNS
M14 melanoma = test system: M14 melanoma
OVCAR-3 ovarian = test system: OVCAR-3 ovarian
CAKI-1 renal = test system: CAKI-1 renal
MCF7 breast = test system: MCF7 breast
MDA-N = test system: MDA-N
HCT-15 colon = test system: HCT-15 colon
OVCAR-4 ovarian = test system: OVCAR-4 ovarian
UO-31 renal = test system: UO-31 renal
A498 renal = test system: A498 renal
MDA-MB-231 breast = test system: MDA-MB-231 breast
MOLT-4 leukemia = test system: MOLT-4 leukemia

SMILES: COc1ccc(N2C(=O)C3c4[nH]c5ccc(OC)cc5c4C4CCC(C(C)C)CC4C3C2=O)cc1 (stereo unspecified)
- TGI (SK-MEL-28 melanoma): > 100 µM
- TGI (T-47D breast): > 100 µM
- TGI (OVCAR-5 ovarian): > 100 µM
- TGI (HCC-2998 colon): > 100 µM
- TGI (DU-145 prostate): > 100 µM
- TGI (NCI/ADR-RES ovarian): > 100 µM
- TGI (UACC-257 melanoma): > 100 µM
- TGI (RPMI-8226 leukemia): > 100 µM
- TGI (SK-OV-3 ovarian): > 100 µM
- TGI (SNB-75 CNS): > 65.5 µM
- TGI (MDA-MB-435): > 100 µM
- TGI (TK-10 renal): > 100 µM
- TGI (CCRF-CEM leukemia): > 30.3 µM
- TGI (EKVX NSCLC): > 100 µM
- TGI (OVCAR-8 ovarian): > 100 µM
- TGI (COLO 205 colon): > 100 µM
- TGI (UACC-62 melanoma): > 31.6 µM
- TGI (HOP-92 NSCLC): > 100 µM
- TGI (NCI-H522 lung): > 100 µM
- TGI (SK-MEL-2 melanoma): > 100 µM
- TGI (K-562 leukemia): > 31.6 µM
- TGI (BT-549 breast): > 100 µM
- TGI (HL-60(TB) leukemia): > 100 µM
- TGI (NCI-H460 lung): > 100 µM
- TGI (SNB-19 CNS): 99.4 µM
- TGI (IGROV1 ovarian): > 100 µM
- TGI (SF-295 CNS): > 100 µM
- TGI (HCT-116 colon): > 100 µM
- TGI (ACHN renal): > 100 µM
- TGI (HT29 colon): > 100 µM
- TGI (NCI-H226 lung): > 100 µM
- TGI (LOX IMVI melanoma): > 100 µM
- TGI (NCI-H23 lung): > 100 µM
- TGI (HOP-62 NSCLC): 54.8 µM
- TGI (PC-3 prostate): > 100 µM
- TGI (KM12 colon): > 100 µM
- TGI (SN12C renal): > 100 µM
- TGI (RXF 393 renal): > 100 µM
- TGI (SK-MEL-5 melanoma): > 100 µM
- TGI (SW-620 colon): > 100 µM
- TGI (U251 CNS): > 100 µM
- TGI (A549 NSCLC): > 100 µM
- TGI (786-0 renal): > 55.2 µM
- TGI (HS 578T breast): > 84.4 µM
- TGI (SF-268 CNS): > 74.5 µM
- TGI (M14 melanoma): > 100 µM
- TGI (OVCAR-3 ovarian): > 100 µM
- TGI (CAKI-1 renal): > 100 µM
- TGI (MCF7 breast): > 100 µM
- TGI (MDA-N): > 100 µM
- TGI (HCT-15 colon): > 100 µM
- TGI (OVCAR-4 ovarian): > 100 µM
- TGI (UO-31 renal): > 100 µM
- TGI (A498 renal): > 92.5 µM
- TGI (MDA-MB-231 breast): > 100 µM
- TGI (MOLT-4 leukemia): > 93.5 µM
